The conditions of data set [1]: pH 6.8.
The test system of data set [2] is Gram-positive pathogens such as staphylococci and enterococci, and Gram-negative pathogens such as E.coli, Klebsiella, Proteus, Serratia, Citrobacter, and …. Briefly: Antibacterial potency (MIC) at acidic pH of 5.5, summary. The data set is classed as cell-based. To be noted: acidic pH of 5.5, some organisms.
Data set [3] relates to Viridans group Streptococci. Briefly: In-vitro antimicrobial activity test (MIC, NCCLS). The data set is classed as cell-based. An excerpt: (§1) The test method was in accordance with the standard NCCLS protocol.
A further data set relates to Bacteroides fragilis. Briefly: In-vitro antimicrobial activity test (MIC, NCCLS). The data set is classed as cell-based.
From the text: as §1

Data set [4] has as its system Streptococcus pneumoniae ATCC 6303. Briefly: In-vitro antimicrobial activity test (MIC, NCCLS). The data set is classed as cell-based.
From the text: as §1

The next data set deals with Mycobacterium avium. Briefly: In-vitro antimicrobial activity test (MIC, NCCLS). The format is cell-based.
From the text: as §1

Data set [5] deals with Mycobacterium tuberculosis ATCC 27294. Briefly: In-vitro antimicrobial activity test (MIC, NCCLS). The format is cell-based.
From the text: as §1

A further data set concerns Propioni bacterium acnes. Briefly: In-vitro antimicrobial activity test (MIC, NCCLS). The data set is classed as cell-based.
From the text: as §1

For data set [6], the system named is Escherichia coli ATCC 25922. The experiment in a line: In-vitro antimicrobial activity test (MIC, NCCLS). The data set is classed as cell-based.
From the text: as §1

The next data set concerns Haemophilus influenzae. The experiment in a line: In-vitro antimicrobial activity test (MIC, NCCLS). The data set is classed as cell-based.
From the text: as §1

In the next data set the test system is Corynebacterium jeikeium. Briefly: In-vitro antimicrobial activity test (MIC, NCCLS). The data set is classed as cell-based.
From the text: as §1

For a further data set, the system named is Serratia marcescens. The experiment in a line: In-vitro antimicrobial activity test (MIC, NCCLS). The format is cell-based.
From the text: as §1

Data set [7] has as its system Mycobacterium intracellulare. Briefly: In-vitro antimicrobial activity test (MIC, NCCLS). The data set is classed as cell-based.
From the text: as §1

The subject of the next data set is Pseudomonas aeruginosa. The experiment in a line: In-vitro antimicrobial activity test (MIC, NCCLS). The format is cell-based.
From the text: as §1

In data set [8] the test system is Chryseobacterium meningosepticum. Briefly: In-vitro antimicrobial activity test (MIC, NCCLS). The data set is classed as cell-based.
From the text: as §1

The next data set deals with Enterococcus faecium. The experiment in a line: In-vitro antimicrobial activity test (MIC, NCCLS). The data set is classed as cell-based.
From the text: as §1

In data set [9] the test system is Enterococcus faecalis ATCC 29212. The experiment in a line: In-vitro antimicrobial activity test (MIC, NCCLS). The data set is classed as cell-based.
From the text: as §1

In another data set the test system is Streptococcus pyogenes. Briefly: In-vitro antimicrobial activity test (MIC, NCCLS). The data set is classed as cell-based.
From the text: as §1

The test system of data set [10] is Staphylococcus aureus ATCC 25923. The experiment in a line: In-vitro antimicrobial activity test (MIC, NCCLS). The data set is classed as cell-based.
From the text: as §1

Data set [11] has as its system S.aureus strain bearing Nor A efflux pump. The data set is classed as cell-based. To be noted: Nor A efflux pump strain vs strain devoid of efflux pump. Here is the method:
Using this set of MIC values, % loss in potency due to efflux was calculated for each of the fluoroquinolone in Table 5

Data set [12] deals with human liver cell-line Hep-G2. Briefly: Human liver cell line cytotoxicity assay (Minimum Toxic Dose). The format is cell-based. To be noted: 3 hours exposure, 4 days incubation, Almar blue. Here is the method: The procedure involved cultivation of cells of human liver cell-line Hep-G2 in DMEM medium containing 5% foetal bovine and exposure to various concentrations of trovafloxacin and S-(−)-Nadifloxacin for 3 hours. The drug containing medium was then replaced with a fresh medium and cells were incubated in 5% CO2 atmosphere at 37° C. for 4 days. Almar blue dye which is an indicative of active respiration was then added to individual sample to access the toxicity of the drugs. The hepatotoxic potential of a drug is expressed in terms of Minimum Toxic Dose (MTD) which is defined as minimum concentration of a drug which brings about inhibition of colour change from blue to pink.

The subject of data set [13] is Mupirocin-resistant Staph STA-34. Briefly: In-vitro antimicrobial activity test (MIC, NCCLS). The format is cell-based, Staphylococcus aureus.
From the text: as §1

Another data set has as its system MRSA STA-4. Briefly: In-vitro antimicrobial activity test (MIC, NCCLS). The format is cell-based, Staphylococcus aureus.
From the text: as §1

The nature of another data set: in vivo. The note with it: mouse; for AUC: po, 30 mg/kg. Also noted: species or system Swiss mice. How it is done:
The blood levels of RS-(±)-Nadifloxacin and S-(−)-Nadifloxacin administered orally to Swiss mice at a dose of 30mg/kg are shown in Table 3 with respect to the AUC (μg/ml.hr), monitored from 15 minutes to 4 hours.

The test system of a further data set is P. rettgeri N 1764. Briefly: Effect of pH on potency of fluoroquinolones (MIC at pH 5.5 and 7.0). The format is cell-based. To be noted: MIC pH 7 vs pH 5.5. The text has this: (§2) The test method was in accordance with the standard NCCLS protocol employing test media adjusted at pH 5.5 and 7.0.
The next data set relates to Serratia marcescens 2702. Described as above. To be noted: MIC pH 7 vs pH 5.5. The format is cell-based.
From the text: as §2

The conditions of data set [14]: in vivo.
A short description of data set [15]: Acute intravenous toxicity in mice.
The conditions of data set [16]: mouse, in vivo.
The subject of data set [17] is Gram-positive and Gram-negative bacteria. The note with it: cited from earlier work.
The next data set relates to MRSE STE-22. The experiment in a line: In-vitro antimicrobial activity test (MIC, NCCLS). The data set is classed as cell-based, Staphylococcus epidermidis.
From the text: as §1

Molecules are shown by their SMILES. ≈ marks a conversion by molar mass, not a printed value. Marks after values point to notes of the source that are not given here.

Turning to `CC(=O)O.C[C@@H](N)C(=O)OC1CCN(c2c(F)cc3c(=O)c(C(=O)O)cn4c3c2CC[C@@H]4C)CC1` [Example 30, 8-{4-[2(R)-Amino-propionyloxy]piperidin-1-yl}-9-fluoro-5(S)-methyl-6,7-dihydro-1-oxo-1H,5H-benzo[i,j]quinolizine-2-carboxylic acid, acetate], in data set [1], the Water solubility was >250 mg/mL.

Take `C[C@H]1CCc2c(N3CCC(O)CC3)c(F)cc3c(=O)c(C(=O)O)cn1c23` [S-(−)-Nadifloxacin, S-(−)-9-fluoro-8-(4-hydroxy-piperidin-1-yl)-5-methyl-6,7-dihydro-1-oxo-1H,5H benzo[i,j]quinolizine-2-carboxylic acid]: the “MIC improves by” value in [2] amounted to 100%. Also, the MIC in data set [3] was found to be 0.2 µg/mL (≈ 0.555 µM); in the data set on Bacteroides fragilis, 0.8 µg/mL (≈ 2.22 µM); in data set [4] it was 0.2 µg/mL (≈ 0.555 µM); against Mycobacterium avium it was 3.12 µg/mL (≈ 8.66 µM); in data set [5] it was 0.8 µg/mL (≈ 2.22 µM); in the data set with Propioni bacterium acnes, 0.1 µg/mL (≈ 0.277 µM). Further, the MIC in data set [6] is 0.2 µg/mL (≈ 0.555 µM); against Haemophilus influenzae, 0.025 µg/mL (≈ 0.0694 µM); against Corynebacterium jeikeium it was 0.05 µg/mL (≈ 0.139 µM); against Serratia marcescens, 0.4 µg/mL (≈ 1.11 µM); in [7] it was 1.56 µg/mL (≈ 4.33 µM); with Pseudomonas aeruginosa, 1.56 µg/mL (≈ 4.33 µM). Also, the MIC was 0.8 µg/mL (≈ 2.22 µM) in data set [8]; 0.4 µg/mL (≈ 1.11 µM) against Enterococcus faecium; 0.2 µg/mL (≈ 0.555 µM) in data set [9]; 0.2 µg/mL (≈ 0.555 µM) with Streptococcus pyogenes; 0.025 µg/mL (≈ 0.0694 µM) in data set [10]; 0.4 µg/mL (≈ 1.11 µM) in [13]. Besides, the MIC with MRSA STA-4 and against MRSE STE-22 was 0.4 µg/mL (≈ 1.11 µM) throughout. Moreover, the “% loss in potency for S. aureus bearing Efflux pump” value in [11] was 0%. For the same compound, in data set [12], the “dosage tolerated by Hep-G-2 cells, times higher than trovafloxacin” value is given as 4 times. The “oral bioavailability, times higher than RS-(±)-Nadifloxacin” value in “in vivo” is reported as 2 times. In “in vivo”, the exposure (AUC) was 33580 ng·h/mL. Moreover, the “% change in potency at pH 5.5, loss (−)/gain (+)” value with P. rettgeri N 1764 and in the data set on Serratia marcescens 2702 was 0.00% throughout. In addition, in data set [14], the phototoxicity potential entry is listed as “negligible phototoxicity potential”. The LD50 in data set [15] (acute intravenous, mice) is on record as >400* mg/kg. In addition, in data set [16], the “acute intravenous toxicity compared with RS-(±)-Nadifloxacin” value is “significantly lower”. The “in-vitro activity compared with racemic Nadifloxacin” value in [17] is “approximtely twice as active”.

As to `CC1CCc2c(N3CCC(O)CC3)c(F)cc3c(=O)c(C(=O)O)cn1c23` (racemic) [RS-(±)-Nadifloxacin, (±)-9-fluoro-8-(4-hydroxypiperidin-1-yl)-5-methyl-6,7-dihydro-1-oxo-1H-5H-benzo[i,j]quinolizine-2-carboxylic acid], the MIC is 0.4 µg/mL (≈ 1.11 µM) in data set [3]; 3.12 µg/mL (≈ 8.66 µM) with Bacteroides fragilis; 0.4 µg/mL (≈ 1.11 µM) in data set [4]; 6.25 µg/mL (≈ 17.3 µM) in the data set with Mycobacterium avium; 1.56 µg/mL (≈ 4.33 µM) in [5]; 0.2 µg/mL (≈ 0.555 µM) in the data set on Propioni bacterium acnes. For the same compound, the MIC is 0.8 µg/mL (≈ 2.22 µM) in [6]; 0.05 µg/mL (≈ 0.139 µM) against Haemophilus influenzae; 0.2 µg/mL (≈ 0.555 µM) in the data set with Corynebacterium jeikeium; 1.56 µg/mL (≈ 4.33 µM) against Serratia marcescens; 3.12 µg/mL (≈ 8.66 µM) in data set [7]; 3.12 µg/mL (≈ 8.66 µM) in the data set with Pseudomonas aeruginosa. The MIC was 1.56 µg/mL (≈ 4.33 µM) in data set [8]; 0.8 µg/mL (≈ 2.22 µM) against Enterococcus faecium; 0.4 µg/mL (≈ 1.11 µM) in [9]; 0.4 µg/mL (≈ 1.11 µM) in the data set on Streptococcus pyogenes; 0.05 µg/mL (≈ 0.139 µM) in data set [10]; 1.56 µg/mL (≈ 4.33 µM) in data set [13]. For the same compound, the MIC in the data set on MRSA STA-4 amounted to 0.8 µg/mL (≈ 2.22 µM); in the data set with MRSE STE-22 it was 1.56 µg/mL (≈ 4.33 µM). For the same compound, the exposure (AUC) in “in vivo” (Swiss) was found to be 16900 ng·h/mL. This compound also yielded an LD50 in [15] (mouse, in vivo, iv) of 311 mg/kg.

These data come from patent US6750224B1, “Antibacterial optically pure benzoquinolizine carboxylic acids, processes, compositions and methods of treatment” (priority 1999, dated 2004).
